Results reported in patent US9062027B2, “Carboxamide compounds and their use as calpain inhibitors V” (AbbVie Deutschland GmbH & Co. KG, priority 2010, dated 2015).

Experiments:
[1] = target: T1, calpain-I (Homo sapiens, UniProt P07384); experiment: Calpain I enzyme inhibition in vitro (kinetic fluorescence assay); format: biochemical; details: apparent Ki from IC50 by Cheng-Prussoff; calpain-I from human erythrocytes, pH 7.3
T1 construct: calpain-I—isolated from human erythrocytes; purchased Calbiochem 208713; host or cells: human erythrocytes (native tissue isolate)
T1 sequence (P07384 1-714): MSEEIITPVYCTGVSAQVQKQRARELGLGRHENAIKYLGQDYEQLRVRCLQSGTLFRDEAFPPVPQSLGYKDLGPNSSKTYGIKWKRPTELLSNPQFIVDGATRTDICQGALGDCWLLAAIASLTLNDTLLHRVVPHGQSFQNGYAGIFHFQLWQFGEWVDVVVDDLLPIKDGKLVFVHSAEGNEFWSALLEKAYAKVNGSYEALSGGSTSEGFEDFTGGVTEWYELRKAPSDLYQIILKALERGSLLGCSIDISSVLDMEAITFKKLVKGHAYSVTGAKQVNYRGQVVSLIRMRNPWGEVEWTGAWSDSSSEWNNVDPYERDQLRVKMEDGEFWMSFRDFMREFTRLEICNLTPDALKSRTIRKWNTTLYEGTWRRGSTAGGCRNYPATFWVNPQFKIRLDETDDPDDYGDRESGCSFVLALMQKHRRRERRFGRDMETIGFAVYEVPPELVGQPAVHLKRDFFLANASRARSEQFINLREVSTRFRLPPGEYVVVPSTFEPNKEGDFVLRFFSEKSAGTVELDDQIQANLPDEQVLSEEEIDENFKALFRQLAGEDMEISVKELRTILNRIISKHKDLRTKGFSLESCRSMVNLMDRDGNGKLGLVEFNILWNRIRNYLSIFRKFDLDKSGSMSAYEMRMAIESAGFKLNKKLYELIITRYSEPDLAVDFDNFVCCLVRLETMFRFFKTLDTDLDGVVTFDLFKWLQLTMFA
T1 sequence (P04632 1-268 partner): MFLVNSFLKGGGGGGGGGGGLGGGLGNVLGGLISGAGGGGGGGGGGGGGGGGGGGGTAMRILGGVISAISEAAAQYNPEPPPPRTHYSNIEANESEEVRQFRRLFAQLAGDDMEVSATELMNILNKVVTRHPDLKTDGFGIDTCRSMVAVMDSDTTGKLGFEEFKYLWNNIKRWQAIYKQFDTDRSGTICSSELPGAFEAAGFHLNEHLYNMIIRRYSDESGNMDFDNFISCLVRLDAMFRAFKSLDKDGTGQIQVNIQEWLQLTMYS
Description: Testing for blockade of the corresponding enzymic activities was carried out by means of kinetic fluorescence assays (excitation 390 nm, emission 460 nm).
Apparent Ki values were calculated from the experimentally determined IC50 values by the Cheng-Prussoff relation assuming a reversible competitive enzyme inhibition.
20 nM calpain-I—isolated from human erythrocytes (Calbiochem #208713), 100 μM Suc-Leu-Tyr-AMC (Bachem #I-1355) as substrate in buffer with 62 mM imidazole, 0.3 mM CaCl2, 0.10% CHAPS, 0.05% BSA, 1 mM DTT at pH 7.3 and room temperature.

[2] = In-vivo pharmacokinetics and metabolite to parent ratio in plasma of cynomolgus monkeys; details: cynomolgus monkey, female cynomolgus monkeys, 3 mg/kg oral versus 1 mg/kg intravenous
Description: The tested compounds were prepared as a solution for either intravenous or oral administration to groups of female cynomolgus monkeys. For intravenous dosing, the compounds were prepared in a 10% DMSO/PEG-400 vehicle at a concentration of 2 mg/ml. For oral dosing, the compounds were prepared in a lipid based vehicle at a concentration of 3 mg/ml. Groups of three monkeys received either a 1 mg/kg (0.5 ml/kg) intravenous dose or a 3 mg/kg (1 ml/kg) oral dose. The intravenous dose was administered as a slow bolus in a saphenous vein; the oral dose was administered by gastric intubation and was followed by ˜5 ml water. […] The samples were reconstituted with an aliquot of mobile phase, followed by quantification by HPLC-MS/MS. Standard curves for both parent and the selected metabolites were prepared from authentic standards in blank monkey plasma; standards were analyzed simultaneously with the samples. The plasma concentration of each sample was calculated by least squares linear regression analysis of the peak area ratio (parent or metabolite/internal standard) of the spiked plasma standards versus concentration.
Peak plasma concentrations (Cmax) and the time to peak plasma concentration (Tmax) were read directly from the plasma concentration data for each monkey. […] The apparent total plasma clearance (CLp) was calculated by dividing the administered dose by the AUC0-inf. […]

SMILES	Ki [1]	also measured
CONC(=O)C(=O)C(Cc1ccccc1)NC(=O)c1cccnc1-n1cc2ccc(C(F)(F)F)cc2n1 (stereo not drawn) [Example 9, N-[4-(Methoxyamino)-3,4-dioxo-1-phenyl-2-butanyl]-2-[6-(trifluoromethyl)-2H-indazol-2-yl]-3-pyridinecarboxamide]	< 0.25 µM	–
CONC(=O)C(=O)C(Cc1ccccc1)NC(=O)c1cccnc1-n1cc2ccccc2n1 (stereo not drawn) [Example 3, 2-(2H-Indazol-2-yl)-N-[4-(methoxyamino)-3,4-dioxo-1-phenyl-2-butanyl]nicotinamide]	< 0.25 µM	–
CONC(=O)C(=O)C(Cc1ccccc1)NC(=O)c1cccnc1-n1cc2cc(F)ccc2n1 (stereo not drawn) [Example 7, 2-(5-Fluoro-2H-indazol-2-yl)-N-[4-(methoxyamino)-3,4-dioxo-1-phenyl-2-butanyl]-3-pyridinecarboxamide]	< 0.25 µM	–
CONC(=O)C(=O)C(Cc1ccccc1)NC(=O)c1cccnc1-n1cc2ccc(F)cc2n1 (stereo not drawn) [Example 8, 2-(6-Fluoro-2H-indazol-2-yl)-N-[4-(methoxyamino)-3,4-dioxo-1-phenyl-2-butanyl]-3-pyridinecarboxamide]	0.25 to 0.4 µM	–
CCONC(=O)C(=O)C(Cc1ccccc1)NC(=O)c1cccnc1-n1cc2ccccc2n1 (stereo not drawn) [Example 4, N-[4-(Ethoxyamino)-3,4-dioxo-1-phenyl-2-butanyl]-2-(2H-indazol-2-yl)nicotinamide]	< 0.25 µM	–
CCNC(=O)C(=O)C(Cc1ccccc1)NC(=O)c1cccnc1-n1cc2ccccc2n1 (stereo not drawn) [Example 2, N-[4-(Ethylamino)-3,4-dioxo-1-phenyl-2-butanyl]-2-(2H-indazol-2-yl)nicotinamide]	–	Calpain activity (Ki(calpain)) [1]: ∘
O=C(NC1CC1)C(=O)C(Cc1ccccc1)NC(=O)c1cccnc1-n1cc2ccccc2n1 (stereo not drawn) [Example 1, N-[4-(Cyclopropylamino)-3,4-dioxo-1-phenylbutan-2-yl]-2-(2H-indazol-2-yl)nicotinamide]	0.4 to 0.8 µM	–
O=C(NC1CC1)C(=O)C(Cc1ccccc1)NC(=O)c1cccnc1-n1cc2c(n1)CCCC2 (stereo not drawn) [Example 5, N-[4-(Cyclopropylamino)-3,4-dioxo-1-phenyl-2-butanyl]-2-(4,5,6,7-tetrahydro-2H-indazol-2-yl)nicotinamide]	0.4 to 0.8 µM	–
NC(=O)C(=O)C(Cc1ccccc1)NC(=O)c1cccnc1-n1cc2ccccc2n1 (stereo not drawn) [comp. ex., N-(3-Amino-1-benzyl-2,3-dioxopropyl)-2-(2H-indazol-2-yl)nicotinamide]	–	bioavailability [2]: 3%
